For test [1], the system named is Mus musculus EMX1 locus (mEMX1). Put plainly: In vivo TnpB editing of mouse EMX1 locus in liver, delivered with an LNP (indels detected by NGS). To be noted: TnpB delivered with an LNP (Table (III) Compound C59), FIG. 7.
Another test deals with human EMX1 locus (hEMX1). The experiment in a line: TnpB endonuclease editing of human EMX1 locus in HEK293T cells (indels detected by NGS). The following applies: FIG. 5. It is filed as cell-based.

Regarding `CCCCCC(CCCCC)CCOC(=O)CCCCCCCC(CCCCCCCC(=O)OC1CC2CCCC1C2)OC(=O)CCCN(C)C` (centres unmarked) [Compound C59], the “editing of Mus musculus EMX1 locus (mEMX1) in liver in vivo” value in test [1] is “edits Mus musculus EMX1 locus (mEMX1) in liver in vivo”.

B1: TnpB (SEQ ID NO: 1): "TnpB (SEQ ID NO: 1) endonuclease edits human EMX1 locus (hEMX1) in HEK293T cells" (protein)
chain: MIRNKAFVVRLYPNAAQTELINRTLGSARFVYNHFLARRIAAYKESGKGLTYGQTSSELTLLKQAEETSWLSEVDKFALQNSLKNLETAYKNFFRTVKQSGKKVGFPRFRKKRTGESYRTQFTNNNIQIGEGRLKLPKLGWVKTKGQQDIQGKILNVTVRRIHEGHYEASVLCEVEIPYLPAAPKFAAGVDVGIKDFAIVTDGVRFKHEQNPKYYRSTLKRLRKAQQTLSRRKKGSARYGKAKTKLARIHKRIVNKRQDFLHKLTTSLVREYEIIGTEHLKPDNMRKNRRLALSISDAGWGEFIRQLEYKAAWYGRLVSKVSPYFPSSQLCHDCGFKNPEVKNLAVRTWTCPNCGETHDRDENAALNIRREALVAAGISDTLNAHGGYVRPASAGNGLRSENHATLVV
modifications: Deinococcus radiodurans
On to B1, for which the “editing of human EMX1 locus (hEMX1)” value in the test on human EMX1 locus (hEMX1) is recorded as “edits human EMX1 locus”.

For the origin of these results see patent publication US20250367322A1, “NUCLEOBASE EDITING SYSTEM AND METHOD OF USING SAME FOR MODIFYING NUCLEIC ACID SEQUENCES” (ReNAgade Therapeutics Management, Inc., priority 2022, published 2025).
